Data as given in patent publication US9593305B2, “Differentiation of pluripotent stem cells” (Janssen Biotech, Inc., priority 2008, dated 2017).

System: H1 human embryonic stem cells
Assay: Analog screening with GDF-8 and growth factor/agonist pool (Example 8, Tables 7 and 8)
Format: cell-based
Parameters: Cell Number, % of positive control / Sox17 Expression, % of positive control: tested at 2.5 µM
Conditions: for outcome in analog screening of hits from primary screening: 2.5 μM with GDF-8 and growth factor/agonist pool
Outline: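 H1 hESC clusters, washed free of growth factors, fed on alternate days over 4 days with DMEM:F12, 0.5% FCS, 2.5 μM compound, 25 ng/ml GDF-8 plus a 50 ng/ml growth-factor pool. Fixed cells immunostained for SOX17 and imaged; total SOX17 intensity normalised to positive control.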

[1] = Plate 2, compound + EGF, FGF, PDGF-A, VEGF, PDGF-D, muscimol, GDF8
[2] = Plate 2, compound + EGF, FGF, PDGF-A, VEGF, PDGF-D, muscimol, GDF8, positive control Activin A/Wnt3a
[3] = Table 8: hits with greater than 25% activity of the positive control, with GDF-8 and growth factors/agonists
[4] = Plate 1, compound + EGF, FGF, PDGF-A, VEGF, PDGF-D, muscimol, GDF8
[5] = Plate 1, compound + EGF, FGF, PDGF-A, VEGF, PDGF-D, muscimol, GDF8, positive control Activin A/Wnt3a
[6] = EGF, FGF, PDGF-A, VEGF, PDGF-D, muscimol, GDF8

| Compound | outcome in analog screening of hits from primary screening | Cell Number, Average Total Cell Number [1] | Sox17 Expression, Average Total Intensity [1] | Cell Number, % of positive control [2] | Sox17 Expression, % of positive control [2] | Cell Number, % of positive control [3] | Sox17 Expression, % of positive control [3] | Sox17 Expression, Average Total Intensity [3] | Cell Number, Average Total Cell Number [4] | Sox17 Expression, Average Total Intensity [4] | Cell Number, % of positive control [5] | Sox17 Expression, % of positive control [5] | Cell Number, % of positive control [6] | Cell Number, Average Total Cell Number [6] | Sox17 Expression, % of positive control [6] | Sox17 Expression, Average Total Intensity [6] |
| --- | --- | --- | --- | --- | --- | --- | --- | --- | --- | --- | --- | --- | --- | --- | --- | --- |
| O=C1CCN2CCN(CC2)Cc2cc(Cl)cc(c2)Nc2ncnc(n2)-c2cncc(c2)CCCN1 [Compound 34, 5-Chloro-1,8,10,12,16,22,26,32-octaazapentacyclo[24.2.2.1˜3.7˜0.1˜9,13˜0.1˜14.18˜]tritriaconta-3(33), 4,6,9(32), 10,12,14(31), 15,17-nonaen-23-one] | repeated as hits | 8907 | 9.99E+07 | 56.3 % of positive control | 35.0 % of positive control | 56.3 % of positive control | 35.0 % of positive control | 9.99E+07 |  |  |  |  |  |  |  |  |
| CN1CCC(=O)NCCCNc2cccc(c2)-c2ncnc(n2)Nc2cccc(c2)C1 [Compound 21, 14-Methyl-3,5,7,14,18,22,29-heptaazatetracyclo[21.3.1.1˜2,6˜0.1˜8,12˜]nonacosa-1(27), 2(29), 3,5,8(28), 9,11,23,25-nonaen-17-one] |  |  |  |  |  | 94.4 % of positive control | 65.9 % of positive control | 1.65E+08 | 12640 | 1.65E+08 | 94.4 % of positive control | 65.9 % of positive control |  |  |  |  |
| CCN1CC(=O)NCCCc2cc(ccn2)-c2ncnc(n2)Nc2cc(Cl)cc(c2)C1 [Compound 14, 10-Chloro-14-ethyl-3,5,7,14,17,22,27-heptaazatetracyclo[19.3.1.1˜2,6˜1˜8,12˜]heptacosa-1(25), 2(27), 3,5,8(26), 9,11,21,23-nonaen-16-one] |  |  |  |  |  |  |  |  | 9344 | 1.23E+08 | 69.8 % of positive control | 49.0 % of positive control | 53.5% | 8464 | 29.1% | 8.33E+07 |
| O=C1CCN2CCN(CC2)Cc2cccc(c2)Nc2ncnc(n2)-c2ccnc(c2)NCCCN1 [Compound 13, 1,8,10,12,17,19,23,27,33-Nonaazapentacyclo[25.2.2.1˜3,7˜0.1˜9.13˜1˜14.18˜]tetratriaconta-3(34), 4,6,9(33), 10,12,14(32), 15,17-nonaen-24-one] |  | 9123 | 1.13E+08 | 57.7 % of positive control | 39.7 % of positive control |  |  |  |  |  |  |  | 52.6% | 7045 | 28.8% | 7.22E+07 |
| O=C1NCCCc2cncc(c2)-c2ncnc(n2)Nc2cccc(c2)CN2CCCC1C2 (stereo not shown) [Compound 17, 3,5,7,14,20,26,31-Heptaazapentacyclo[22.3.1.1-2,6˜1˜8,12˜1˜14,18˜]hentriaconta-1(28), 2(31), 3,5,8(30), 9,11,24,26-nonaen-19-one] |  |  |  |  |  |  |  |  |  |  |  |  | 59.6% | 7988 | 45.0% | 1.13E+08 |
| CN1CCCC(=O)NCCCc2cncc(c2)-c2ncnc(n2)Nc2cccc(c2)C1 [Compound 20, 14-Methyl-3,5,7,14,19,25,29-heptaazatetracyclo[21.3.1.1˜2,6˜0.1˜8,12˜]nonacosa-1(27), 2(29), 3,5,8(28), 9,11,23,25-nonaen-18-one] |  | 7346 | 8.90E+07 | 46.5 % of positive control | 31.2 % of positive control |  |  |  | 9434 | 1.48E+08 | 70.4 % of positive control | 59.1 % of positive control | 70.4% | 9434 | 59.1% | 1.48E+08 |
| O=C1CCN2CCN(CC2)Cc2cccc(c2)Nc2ncnc(n2)-c2cncc(c2)CCCN1 [Compound 23, 1,8,10,12,16,22,26,32-Octaazapentacyclo[24.2.2.1-3,7˜0.1˜9,13˜0.1˜14,18˜]tritriaconta-3(33), 4,6,9(32), 10,12,14(31), 15,17-nonaen-23-one] |  |  |  |  |  | 90.8 % of positive control | 86.0 % of positive control | 2.15E+08 | 12165 | 2.15E+08 | 90.8 % of positive control | 86.0 % of positive control |  |  |  |  |
| CN1CCC(=O)NCCCc2cncc(c2)-c2ncnc(n2)Nc2cccc(c2)C1 [Compound 19, 14-Methyl-3,5,7,14,18,24,28-heptaazatetracyclo[20.3.1.1˜2,6˜0.1˜8,12˜]octacosa-1(26), 2(28), 3,5,8(27), 9,11,22,24-nonaen-17-one] |  | 8425 | 1.19E+08 | 53.3 % of positive control | 41.6 % of positive control |  |  |  |  |  |  |  | 58.2% | 7799 | 27.2% | 6.82E+07 |
| CCN1CC(=O)NCCCc2cncc(c2)-c2ncnc(n2)Nc2cc(Cl)cc(c2)C1 [Compound 35, 10-Chloro-14-ethyl-3,5,7,14,17,23,27-heptaazatetracyclo[19.3.1.1˜2,6˜0.1˜8,12]Theptacosa-1(25), 2(27), 3,5,8(26), 9,11,21,23-nonaen-16-one] | repeated as hits | 10461 | 1.59E+08 | 66.2 % of positive control | 55.7 % of positive control | 66.2 % of positive control | 55.7 % of positive control | 1.59E+08 |  |  |  |  |  |  |  |  |
| CCN1CC(=O)NCCCc2cc(ccc2F)-c2ncnc(n2)Nc2cc(Cl)cc(c2)C1 [Compound 25, 10-Chloro-14-ethyl-22-fluoro-3,5,7,14,17,27-hexaazatetracyclo[19.3.1.1˜2,6˜0.1˜8,12˜]heptacosa-1(25), 2(27), 3,5,8(26), 9,11,21,23-nonaen-16-one] |  | 6571 | 7.60E+07 | 41.6 % of positive control | 26.6 % of positive control | 41.6 % of positive control | 26.6 % of positive control | 7.60E+07 |  |  |  |  |  |  |  |  |
| CCN1CC(=O)NCCCc2cccc(c2)-c2ncnc(n2)Nc2cccc(c2)C1 [Compound 15, 14-Ethyl-3,5,7,14,17,27-hexaazatetracyclo[19.3.1.1˜2,6˜1-8.12˜]heptacosa-1(25), 2(27), 3,5,8(26), 9,11,21,23-nonaen-16-one] |  |  |  |  |  |  |  |  | 8448 | 8.64E+07 | 63.1 % of positive control | 34.5 % of positive control | 45.8% | 7234 | 27.8% | 7.95E+07 |
| O=C1NCCCc2cncc(c2)-c2ncnc(n2)Nc2cccc(c2)CN2CCC[C@@H]12 [Compound 18, (18S)-3,5,7,14,20,26,30-Heptaazapentacyclo[22.3.1.1˜2,6˜1˜8,12˜0.0˜14,18˜]triaconta-1(28), 2(30), 3,5,8(29), 9,11,24,26-nonaen-19-one] |  |  |  |  |  |  |  |  | 13037 | 1.63E+08 | 97.3 % of positive control | 65.2 % of positive control | 55.3% | 8742 | 35.4% | 1.01E+08 |
| C=CCN1CC(=O)NCCCc2cncc(c2)-c2ncnc(n2)Nc2cccc(c2)C1 [Compound 40, 14-Prop-2-en-1-yl-3,5,7,14,17,23,27-heptaazatetracyclo[19.3.1.1˜2.6˜0.1˜8,12˜]heptacosa-1(25), 2(27), 3,5,8(26), 9,11,21,23-nonaen-16-one] |  | 4049 | 8.23E+07 | 25.6 % of positive control | 28.8 % of positive control | 25.6 % of positive control | 28.8 % of positive control | 8.23E+07 |  |  |  |  |  |  |  |  |
